# pEC50, pIC50: −log10 of the molar value. Where two headings read alike, the source gives them in different places.
# What was measured:
# CMV = assay: microbe, parasite or virus in culture; format: cell-based
# [1] = system: KOS strain of HSV-1 virus; assay: HSV-1 qPCR assay; details: Human alphaherpesvirus 1, 24 h
# VZV Ellen strain = assay: VZV qPCR assay; details: Human alphaherpesvirus 3, MRC5, 48 h, read-out: Cellular activity against VZV (EC50)
# CMV-polymerase = CMV-polymerase (Human cytomegalovirus (strain AD169) (HHV-5) (Human herpesvirus 5), UniProt P08546); assay: biochemical; details: read-out: CMV-polymerase Biochemical IC50
# HSV-polymerase = HSV-polymerase (Human herpesvirus 1 (strain 17) (HHV-1) (Human herpes simplex virus 1), UniProt P04293); assay: biochemical
# [2] = system: EBV (SNU-719 cells latently infected); assay: EBV qPCR assay; details: human gammaherpesvirus 4, 72 h, read-out: Cellular activity against EBV (EC50)
# [3] = system: HCMV-Rluc virus (AD169 pp28-hRluc rUL131); assay: CMV Luciferase Assay of Compounds 243-262 in ARPE-19 cells; format: cell-based; details: read-out: CMV-Luc Cellular EC50 in ARPE-19
# Method: CMV Luciferase Assay of Compounds 243-262.
# Compounds 243-262 were tested in a luminescence assay as follows.
# ARPE-19 cells were maintained in growth medium (DMEM/F12 Glutamax+10 fetal bovine serum (FBS)+PenStrep) and, before reaching full confluence, were transferred to a centrifuge tube and spun for 5 minutes at 1000 rpm. The cells were resuspended in assay medium (DMEM/F12 Glutamax+2% FBS+PenStrep) and counted. Cell density was adjusted to one million cells per milliliter and infected with HCMV-Rluc virus (AD169 pp28-hRluc rUL131; MOI 0.6) in a 50 ml conical tube for 2 hours while shaking. After dilution of the infectious suspension ten-fold (to 100,000 cells per milliliter), 8000 cells are directly plated in 384-well plates pre-spotted with the compound to be tested. The cells were incubated for 72 hours at 37 degrees Celsius. Cells were then placed at room temperature and allowed to equilibrate for 20 minutes before addition of the Renilla-Glo (Promega) reagent. After a 10-minute incubation at room temperature, luminescence was measured on a microplate reader.
# [4] = Human betaherpesvirus 5, 72 h, read-out: CMV-Luc Cellular EC50, NN-NHDF cells, MOI 1, 72 hrs
# [5] = Human betaherpesvirus 5, read-out: Cellular activity against CMV (EC50), Table 18
# [6] = read-out: Cellular activity against HSV-1 (EC50), NN-NHDF cells, MOI 0.01, 24 hrs, qPCR
# [7] = read-out: Cellular activity against HSV-1 (EC50)
# [8] = Human betaherpesvirus 5, AD169, ARPE-19, 72 h
Compound,pEC50 (CMV; [4]),pEC50 (CMV; [5]),"pEC50 [3, 8]",further results
"Cn1nc(C(=O)NCc2ccc(Cl)cc2)c2c1C(=O)N(CC1(S(=O)(=O)C(C)(C)C(O)CN)CC1)CC2 (single isomer, unassigned) [Example 200, (R)- or (S)-6-((1-((4-Amino-3-hydroxy-2-methylbutan-2-yl)sulfonyl)cyclopropyl)methyl)-N-(4-chlorobenzyl)-1-methyl-7-oxo-4,5,6,7-tetrahydro-1H-pyrazolo[3,4-c]pyridine-3-carboxamide]",8.30,8.30,,"pEC50 [1, 6]: 7.80"
"Cn1nc(C(=O)NCc2ccc(C#N)cc2)c2c1C(=O)N(CC1(S(=O)(=O)C3CC3)CC1)CC2 [Example 3, N-(4-cyanobenzyl)-6-((1-(cyclopropylsulfonyl)cyclopropyl)methyl)-1-methyl-7-oxo-4,5,6,7-tetrahydro-1H-pyrazolo[3,4-c]pyridine-3-carboxamide]",7.41,7.41,,"pEC50 (VZV Ellen strain): 7.96; pIC50 (CMV-polymerase): 8.70; pEC50 [1, 7]: 7.48"
"Cn1nc(C(=O)NCc2ccc(Cl)cc2)c2c1C(=O)N(CC1(S(=O)(=O)C3CC3)CC1)CC2 [Example 4, N-(4-Chlorobenzyl)-6-((1-(cyclopropylsulfonyl)cyclopropyl)methyl)-1-methyl-7-oxo-4,5,6,7-tetrahydro-1H-pyrazolo[3,4-c]pyridine-3-carboxamide]",7.64,7.64,,"pEC50 (VZV Ellen strain): 8.10; pIC50 (CMV-polymerase): 8.70; pEC50 [1, 6]: 7.19"
"Cn1nc(C(=O)NCc2ccc(C#N)cc2)c2c1C(=O)N(CC1(S(=O)(=O)C(C)(C)COCCN)CC1)CC2 [Example 92, 6-((1-((1-(2-Aminoethoxy)-2-methylpropan-2-yl)sulfonyl)cyclopropyl)methyl)-N-(4-cyanobenzyl)-1-methyl-7-oxo-4,5,6,7-tetrahydro-1H-pyrazolo[3,4-c]pyridine-3-carboxamide]",7.92,7.92,,"pIC50 (HSV-polymerase): 7.52; pIC50 (CMV-polymerase): 9.00; pEC50 [1, 6]: 7.52"
"Cn1nc(C(=O)NCc2ccc(C#N)cc2)c2c1C(=O)N(CC1(S(=O)(=O)C(C)(C)[C@H](O)CN)CC1)CC2 [Example 198, (R)-6-((1-((4-amino-3-hydroxy-2-methylbutan-2-yl)sulfonyl)cyclopropyl)methyl)-N-(4-cyanobenzyl)-1-methyl-7-oxo-4,5,6,7-tetrahydro-1H-pyrazolo[3,4-c]pyridine-3-carboxamide]",7.74,7.66,,"pEC50 [2]: 8.40; pEC50 (VZV Ellen strain): 7.41; pEC50 [1, 7]: 7.30"
"CC1(S(=O)(=O)C2(CN3CCc4c(C(=O)NCc5ccc(C#N)cc5)nn(CCO)c4C3=O)CC2)CC1 [Example 217, N-(4-Cyanobenzyl)-1-(2-hydroxyethyl)-6-((1-((1-methylcyclopropyl)sulfonyl)cyclopropyl)methyl)-7-oxo-4,5,6,7-tetrahydro-1H-pyrazolo[3,4-c]pyridine-3-carboxamide]",7.54,7.54,,"pIC50 (CMV-polymerase): 9.00; pEC50 [1, 6]: 7.44"
"CC(C)(CO)S(=O)(=O)C1(CN2CCc3c(C(=O)NCc4ccc(Cl)cc4)nn(CCO)c3C2=O)CC1 [Example 221, N-(4-chlorobenzyl)-6-((1-((1-hydroxy-2-methylpropan-2-yl)sulfonyl)cyclopropyl)methyl)-1-(2-hydroxyethyl)-7-oxo-4,5,6,7-tetrahydro-1H-pyrazolo[3,4-c]pyridine-3-carboxamide]",7.77,7.77,,"pIC50 (CMV-polymerase): 9.00; pEC50 [1, 6]: 8.00"
"Cn1nc(C(=O)NCc2ccc(Cl)c(F)c2)c2c1C(=O)N(CC1(S(=O)(=O)C(C)(C)[C@@H](O)CO)CC1)CC2 [Example 251, (S)—N-(4-chloro-3-fluorobenzyl)-6-((1-((3,4-dihydroxy-2-methylbutan-2-yl)sulfonyl)cyclopropyl)methyl)-1-methyl-7-oxo-4,5,6,7-tetrahydro-1H-pyrazolo[3,4-c]pyridine-3-carboxamide]",,,8.01,
"Cn1nc(C(=O)NCc2ccc(C#N)cc2)c2c1C(=O)N(CC1(S(=O)(=O)C(C)(C)C(O)CO)CC1)CC2 (stereo not shown) [Example 252, N-(4-cyanobenzyl)-6-((1-((3,4-dihydroxy-2-methylbutan-2-yl)sulfonyl)cyclopropyl)methyl)-1-methyl-7-oxo-4,5,6,7-tetrahydro-1H-pyrazolo[3,4-c]pyridine-3-carboxamide]",,,,"pEC50 ([3]; ARPE-19 cells, MOI 0.6, 72 hours): 7.66"
"Cn1nc(C(=O)NCc2ccc(C#N)cc2)c2c1C(=O)N(CC1(S(=O)(=O)NC(C)(C)CC(N)=O)CC1)CC2 [Example 253, 6-((1-(N-(4-amino-2-methyl-4-oxobutan-2-yl)sulfamoyl)cyclopropyl)methyl)-N-(4-cyanobenzyl)-1-methyl-7-oxo-4,5,6,7-tetrahydro-1H-pyrazolo[3,4-c]pyridine-3-carboxamide]",,,6.41,
"CN(C)C(=O)CCNS(=O)(=O)C1(CN2CCc3c(C(=O)NCc4ccc(C#N)cc4)nn(C)c3C2=O)CC1 [Example 254, N-(4-cyanobenzyl)-6-((1-(N-(3-(dimethylamino)-3-oxopropyl)sulfamoyl)cyclopropyl)methyl)-1-methyl-7-oxo-4,5,6,7-tetrahydro-1H-pyrazolo[3,4-c]pyridine-3-carboxamide]",,,6.00,
"Cn1nc(C(=O)NCc2ccc(C#N)cc2)c2c1C(=O)N(CC1(S(=O)(=O)N3C[C@H](O)[C@@H](O)C3)CC1)CC2 [Example 255, N-(4-cyanobenzyl)-6-((1-(((3S,4S)-3,4-dihydroxypyrrolidin-1-yl)sulfonyl)cyclopropyl)methyl)-1-methyl-7-oxo-4,5,6,7-tetrahydro-1H-pyrazolo[3,4-c]pyridine-3-carboxamide]",,,6.51,
"Cn1nc(C(=O)NCc2ccc(C#N)cc2)c2c1C(=O)N(CC1(S(=O)(=O)NC3(c4cccnn4)CC3)CC1)CC2 [Example 256, N-(4-cyanobenzyl)-1-methyl-7-oxo-6-((1-(N-(1-(pyridazin-3-yl)cyclopropyl)sulfamoyl)cyclopropyl)methyl)-4,5,6,7-tetrahydro-1H-pyrazolo[3,4-c]pyridine-3-carboxamide]",,,5.00,
"Cn1nc(C(=O)NCc2ccc(C#N)cc2)c2c1C(=O)N(CC1(S(=O)(=O)NC(C)(CO)CO)CC1)CC2 [Example 257, N-(4-cyanobenzyl)-6-((1-(N-(1,3-dihydroxy-2-methylpropan-2-yl)sulfamoyl)cyclopropyl)methyl)-1-methyl-7-oxo-4,5,6,7-tetrahydro-1H-pyrazolo[3,4-c]pyridine-3-carboxamide]",,,6.45,
"Cn1nc(C(=O)NCc2ccc(C#N)cc2)c2c1C(=O)N(CC1(S(=O)(=O)NCc3ncccn3)CC1)CC2 [Example 258, N-(4-cyanobenzyl)-1-methyl-7-oxo-6-((1-(N-(pyrimidin-2-ylmethyl)sulfamoyl)cyclopropyl)methyl)-4,5,6,7-tetrahydro-1H-pyrazolo[3,4-c]pyridine-3-carboxamide]",,,6.16,
"CC(NS(=O)(=O)C1(CN2CCc3c(C(=O)NCc4ccc(C#N)cc4)nn(C)c3C2=O)CC1)c1cnccn1 (stereo not shown) [Example 259, N-(4-cyanobenzyl)-1-methyl-7-oxo-6-((1-(N-(1-(pyrazin-2-yl)ethyl)sulfamoyl)cyclopropyl)methyl)-4,5,6,7-tetrahydro-1H-pyrazolo[3,4-c]pyridine-3-carboxamide]",,,6.15,
"Cn1nc(C(=O)NCc2ccc(C#N)cc2)c2c1C(=O)N(CC1(S(=O)(=O)NCc3cnccn3)CC1)CC2 [Example 260, N-(4-cyanobenzyl)-1-methyl-7-oxo-6-((1-(N-(pyrazin-2-ylmethyl)sulfamoyl)cyclopropyl)methyl)-4,5,6,7-tetrahydro-1H-pyrazolo[3,4-c]pyridine-3-carboxamide]",,,6.56,
"Cn1nc(C(=O)NCc2ccc(C#N)cc2)c2c1C(=O)N(CC1(S(=O)(=O)NC(CO)(CO)CO)CC1)CC2 [Example 261, N-(4-cyanobenzyl)-6-((1-(N-(1,3-dihydroxy-2-(hydroxymethyl)propan-2-yl)sulfamoyl)cyclopropyl)methyl)-1-methyl-7-oxo-4,5,6,7-tetrahydro-1H-pyrazolo[3,4-c]pyridine-3-carboxamide]",,,5.59,
"Cn1nc(C(=O)NCc2ccc(C#N)cc2)c2c1C(=O)N(CC1(S(N)(=O)=O)CC1)CC2 [Example 262, N-(4-cyanobenzyl)-1-methyl-7-oxo-6-((1-sulfamoylcyclopropyl)methyl)-4,5,6,7-tetrahydro-1H-pyrazolo[3,4-c]pyridine-3-carboxamide]",,,6.60,

# From patent US12338220B2, “Antiviral pyrazolopiridinone compounds” (Novartis AG, priority 2019, dated 2025)
